In PubChem BioAssay AID1259407 (Chemical Carcinogenesis Research Information System (CCRIS), 2018) one finds mutagenic call data, which are given here for twelve compounds.

The series deals with CCRIS mutagenicity, Ames/micronucleus/aberration tests. The experiment in a line: CCRIS mutagenicity studies.
The mark [1] stands for this setting: Test System: AMES SALMONELLA TYPHIMURIUM, Strain/Indicator: TA98, Metabolic Activation: NONE, Method: STANDARD PLATE.
Setting [2] is: Test System: AMES SALMONELLA TYPHIMURIUM, Strain/Indicator: TA100, Metabolic Activation: NONE, Method: STANDARD PLATE.
Where [3] appears, read: Test System: AMES SALMONELLA TYPHIMURIUM, Strain/Indicator: TA98, Metabolic Activation: NONE, Method: PREINCUBATION
The mark [4] stands for this setting: Test System: AMES SALMONELLA TYPHIMURIUM, Strain/Indicator: TA100, Metabolic Activation: NONE, Method: PREINCUBATION
The mark [5] stands for this setting: Test System: AMES SALMONELLA TYPHIMURIUM, Strain/Indicator: TA1535, Metabolic Activation: NONE, Method: PREINCUBATION
[6] abbreviates: Test System: AMES SALMONELLA TYPHIMURIUM, Strain/Indicator: TA1537, Metabolic Activation: NONE, Method: PREINCUBATION
[7] abbreviates: Test System: AMES SALMONELLA TYPHIMURIUM, Strain/Indicator: TA100, Metabolic Activation: RAT, LIVER, S-9, AROCLOR 1254, Method: PREINCUBATION

The source made the active and inactive calls. How the calls were made is not given here.

For `Cc1c(/C=N/OCc2ccc(Cl)cc2Cl)c2cc([N+](=O)[O-])ccc2n1Cc1ccc(Cl)cc1`, the mutagenic call was “inactive; negative” under setting [1]; “inactive; negative” (Test System: AMES SALMONELLA TYPHIMURIUM, Strain/Indicator: TA98, Metabolic Activation: RAT, LIVER, S-9, PHENOBARBITAL AND BETA-NAPHTHOFLAVONE, Method: STANDARD PLATE); “inactive; negative” under setting [2]; “inactive; negative” (Test System: AMES SALMONELLA TYPHIMURIUM, Strain/Indicator: TA100, Metabolic Activation: RAT, LIVER, S-9, PHENOBARBITAL AND BETA-NAPHTHOFLAVONE, Method: STANDARD PLATE).

As for `ClCc1cc2c3c(cccc3c1)-c1ccccc1-2`, the mutagenic call by setting is: under setting [1], “active; positive”; under setting [2], “active; positive”.

For `CC1=C(Cl)C(=O)OC1O` (stereo not drawn), the mutagenic call is “active; positive” under setting [2]; “active; positive” (Test System: Ames Salmonella typhimurium, Strain/Indicator: TA100, Metabolic Activation: None, Method: Plate incorporation); “active; positive” (Test System: Ames Salmonella typhimurium, Strain/Indicator: TA104, Metabolic Activation: None, Method: Plate incorporation); “active; positive” (Test System: UDS RAT HEPATOCYTES, Strain/Indicator: THYMIDINE INCORPORATION, Metabolic Activation: NONE, Method: AUTORADIOGRAPHY).

As for `CCCCCN(CCCOC)C(=O)C(CCC(=O)O)NC(=O)c1ccc(Cl)c(Cl)c1` (stereo not drawn), the mutagenic call reads like this: under setting [3], “inactive; negative”; (Test System: AMES SALMONELLA TYPHIMURIUM, Strain/Indicator: TA98, Metabolic Activation: RAT LIVER S-9, PHENOBARBITAL AND 5,6-BENZOFLAVONE, Method: PREINCUBATION) “inactive; negative”; under setting [4], “inactive; negative”; (Test System: AMES SALMONELLA TYPHIMURIUM, Strain/Indicator: TA100, Metabolic Activation: RAT LIVER S-9, PHENOBARBITAL AND 5,6-BENZOFLAVONE, Method: PREINCUBATION) “inactive; negative”; under setting [5], “inactive; negative”; (Test System: AMES SALMONELLA TYPHIMURIUM, Strain/Indicator: TA1535, Metabolic Activation: RAT LIVER S-9, PHENOBARBITAL AND 5,6-BENZOFLAVONE, Method: PREINCUBATION) “inactive; negative”. For the same compound, the mutagenic call was “inactive; negative” under setting [6]; “inactive; negative” (Test System: AMES SALMONELLA TYPHIMURIUM, Strain/Indicator: TA1537, Metabolic Activation: RAT LIVER S-9, PHENOBARBITAL AND 5,6-BENZOFLAVONE, Method: PREINCUBATION); “inactive; negative” (Test System: E.COLI, Strain/Indicator: WP2 UVRA, Metabolic Activation: NONE, Method: PREINCUBATION); “inactive; negative” (Test System: E.COLI, Strain/Indicator: WP2 UVRA, Metabolic Activation: RAT LIVER S-9, PHENOBARBITAL AND 5,6-BENZOFLAVONE, Method: PREINCUBATION).

As for `CCOP(=O)=O.CCOP(=O)=O.CCOP(=O)=O.[Al+3]`, under “End Point: IN VIVO MICRONUCLEUS, Test System: BONE MARROW POLYCHROMATIC ERYTHROCYTES, Species: MOUSE, Strain/Sex: SWISS/MALE, FEMALE, Route: IP 2X IN AQUEOUS SUSPENSION WITHIN 24 HR”, the mutagenic call is “active; positive”.

Take `CN(C)C(=S)N(C)C`: the mutagenic call runs as follows: (Test System: AMES SALMONELLA TYPHIMURIUM, Strain/Indicator: TA98, Metabolic Activation: HAMSTER, LIVER, S-9, AROCLOR 1254 (10%), Method: PREINCUBATION) “inactive; negative”; under setting [3], “inactive; negative”; (Test System: AMES SALMONELLA TYPHIMURIUM, Strain/Indicator: TA98, Metabolic Activation: RAT, LIVER, S-9, AROCLOR 1254 (10%), Method: PREINCUBATION) “inactive; negative”; (Test System: AMES SALMONELLA TYPHIMURIUM, Strain/Indicator: TA100, Metabolic Activation: HAMSTER, LIVER, S-9, AROCLOR 1254 (10%), Method: PREINCUBATION) “inactive; negative”; under setting [4], “inactive; negative”; (Test System: AMES SALMONELLA TYPHIMURIUM, Strain/Indicator: TA100, Metabolic Activation: RAT, LIVER, S-9, AROCLOR 1254 (10%), Method: PREINCUBATION) “inactive; negative”. Also, the mutagenic call was “inactive; negative” (Test System: AMES SALMONELLA TYPHIMURIUM, Strain/Indicator: TA1535, Metabolic Activation: HAMSTER, LIVER, S-9, AROCLOR 1254 (10%), Method: PREINCUBATION); “inactive; negative” under setting [5]; “inactive; negative” (Test System: AMES SALMONELLA TYPHIMURIUM, Strain/Indicator: TA1535, Metabolic Activation: RAT, LIVER, S-9, AROCLOR 1254 (10%), Method: PREINCUBATION); “inactive; negative” (Test System: AMES SALMONELLA TYPHIMURIUM, Strain/Indicator: TA1537, Metabolic Activation: HAMSTER, LIVER, S-9, AROCLOR 1254 (10%), Method: PREINCUBATION); “inactive; negative” under setting [6]; “inactive; negative” (Test System: AMES SALMONELLA TYPHIMURIUM, Strain/Indicator: TA1537, Metabolic Activation: RAT, LIVER, S-9, AROCLOR 1254 (10%), Method: PREINCUBATION).

Turning to `CC(=O)O[C@]1(C)C(=O)OC/C2=C/CN(C)CC[C@@H](OC(=O)C3(C[C@H]1C)O[C@@H]3C)C2=O` (stereo partly drawn), the mutagenic call (Test System: UDS RAT HEPATOCYTES, Strain/Indicator: THY INCORP, Metabolic Activation: NONE, Method: AUTORADIOGRAPHY) was “active; positive”.

Regarding `CCCNC(=O)C=Cc1ccc([N+](=O)[O-])o1`, the mutagenic call under setting [3] is “active; positive”.

For the compound `CCC(CC)[N+](=O)[O-]`, the mutagenic call under setting [4] was “inactive; negative”; the mutagenic call (Test System: AMES SALMONELLA TYPHIMURIUM, Strain/Indicator: TA100, Metabolic Activation: RAT, LIVER, S-9, AROCLOR, Method: PREINCUBATION) is “inactive; negative”; the mutagenic call (Test System: AMES SALMONELLA TYPHIMURIUM, Strain/Indicator: TA102, Metabolic Activation: NONE, Method: PREINCUBATION) was “inactive; negative”; the mutagenic call (Test System: AMES SALMONELLA TYPHIMURIUM, Strain/Indicator: TA102, Metabolic Activation: RAT, LIVER, S-9, AROCLOR, Method: PREINCUBATION) was “inactive; negative”; the mutagenic call (Test System: UDS RAT HEPATOCYTES, Strain/Indicator: THY INCORP, Metabolic Activation: NONE) is “active; positive”.

With `Fc1ccnc2ccccc12`, the mutagenic call reads like this: under setting [7], “active; positive”; (Test System: UDS RODENT HEPATOCYTES, Strain/Indicator: THY INCORP (NON-S-PHASE), Metabolic Activation: NONE, Method: AUTORADIOGRAPHY) “inactive; negative”.

For the compound `Cc1nn(C)c(NC(=O)CNCCCN2CCCCC2C)c1C(=O)c1ccccc1F` (stereo not drawn), the mutagenic call was “active; positive” (Test System: AMES SALMONELLA TYPHIMURIUM, Strain/Indicator: TA98, Metabolic Activation: RAT, LIVER, S-9, AROCLOR 1254, Method: PREINCUBATION); “inactive; negative” (Test System: AMES SALMONELLA TYPHIMURIUM, Strain/Indicator: TA98, Metabolic Activation: RAT, LIVER, S-9, AROCLOR 1254, Method: STANDARD PLATE); “active; positive” under setting [7]; “inactive; negative” (Test System: AMES SALMONELLA TYPHIMURIUM, Strain/Indicator: TA100, Metabolic Activation: RAT, LIVER, S-9, AROCLOR 1254, Method: STANDARD PLATE).

As to `Oc1cccc2c1ccc1[nH]c3ccc4ccccc4c3c12`, the mutagenic call is “active; positive” under setting [1]; “active; positive” (Test System: AMES SALMONELLA TYPHIMURIUM, Strain/Indicator: TA98, Metabolic Activation: RAT, LIVER, S-9, 3-METHYLCHOLANTHRENE, Method: STANDARD PLATE); “active; positive” under setting [2]; “active; positive” (Test System: AMES SALMONELLA TYPHIMURIUM, Strain/Indicator: TA100, Metabolic Activation: RAT, LIVER, S-9, 3-METHYLCHOLANTHRENE, Method: STANDARD PLATE); “inactive; negative” (Test System: AMES SALMONELLA TYPHIMURIUM, Strain/Indicator: TM677, Metabolic Activation: NONE, Method: PREINCUBATION); “active; positive” (Test System: AMES SALMONELLA TYPHIMURIUM, Strain/Indicator: TM677, Metabolic Activation: RAT, LIVER, S-9, 3-METHYLCHOLANTHRENE (10%), Method: PREINCUBATION). Also, the mutagenic call (Test System: AMES SALMONELLA TYPHIMURIUM, Strain/Indicator: TM677, Metabolic Activation: RAT, LIVER, S-9, AROCLOR 1254 (10%), Method: PREINCUBATION) is “active; positive”.
